Laboratory results taken from PubChem BioAssay (NCI).
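How tested: cells in 96-well plates exposed to compound for 48 hours at five concentrations. Abbreviation: GI50, concentration required for 50% inhibition of growth. TGI: total growth inhibition.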

Legend:
Experiment in all cases: growth of human tumour cells (NCI), 48 h
SNB-75 CNS = test system: SNB-75 CNS
SF-539 CNS = test system: SF-539 CNS
OVCAR-3 ovarian = test system: OVCAR-3 ovarian
CCRF-CEM leukemia = test system: CCRF-CEM leukemia
M14 melanoma = test system: M14 melanoma
OVCAR-4 ovarian = test system: OVCAR-4 ovarian
PC-3 prostate = test system: PC-3 prostate
NCI-H460 lung = test system: NCI-H460 lung
MCF7 breast = test system: MCF7 breast
MOLT-4 leukemia = test system: MOLT-4 leukemia

Compound | GI50 (SNB-75 CNS) [µM] | TGI (SNB-75 CNS) [µM] | GI50 (SF-539 CNS) [µM] | TGI (SF-539 CNS) [µM] | GI50 (OVCAR-3 ovarian) [µM] | TGI (OVCAR-3 ovarian) [µM] | GI50 (CCRF-CEM leukemia) [µM] | TGI (CCRF-CEM leukemia) [µM] | GI50 (M14 melanoma) [µM] | TGI (M14 melanoma) [µM] | GI50 (OVCAR-4 ovarian) [µM] | TGI (OVCAR-4 ovarian) [µM] | GI50 (PC-3 prostate) [µM] | TGI (PC-3 prostate) [µM] | GI50 (NCI-H460 lung) [µM] | TGI (NCI-H460 lung) [µM] | GI50 (MCF7 breast) [µM] | TGI (MCF7 breast) [µM] | GI50 (MOLT-4 leukemia) [µM] | TGI (MOLT-4 leukemia) [µM]
CC(=O)Nc1ccc(/C=C/C(=O)c2ccccc2)cc1 | 18.2 | 42.2 | 14 | 32.9 | 7.41 | 20.1 | 3.36 | 16.6 | 16 | 33.3 | 17.2 | 45.1 | 23.2 | 66.2 | 17.6 | 41.6 | 3.5 | 13.9 | 5.55 | 68.4
Nc1ccccc1-c1ccc([N+](=O)[O-])cc1 | > 100 | > 100 | 3.92 | 63 | 13.4 | 76.9 | 2.31 | > 100 | 97.7 | > 100 | 40.8 | > 100 | 15 | > 100 | 4.44 | > 100 | 35 | > 100 | 4.28 | > 100
COc1cc2cc(C(=O)CCC(=O)O)sc2cc1OC | 12.7 | > 100 | 16.5 | > 100 | > 100 | > 100 | > 100 | > 100 | > 100 | > 100 | > 100 | > 100 | > 100 | > 100 | > 100 | > 100 | > 100 | > 100 | > 100 | > 100
CCCCCCc1cc2cc(-c3nc4ccccc4[nH]3)c(=Nc3ccccc3C)oc2cc1O | 1.41 | 3.49 | 1.83 | 3.75 | 1.77 | 3.28 | 2.77 | 9.59 | 1.85 | 3.6 | 1.69 | 3.37 | 2.3 | 7.98 | 2.12 | 4.77 | 2.24 | > 23.8 | 3.9 | 22.5
CCC[CH2][Sn]([CH2]CCC)([O]C(=O)c1cc(F)ccc1F)[O][Sn]([CH2]CCC)([CH2]CCC)[O]C(=O)c1cc(F)ccc1F | 0.365 | 1.66 | 0.386 | 1.22 | 0.512 | 1.61 | 0.0113 | 2.7 | 0.367 | 1.25 | 0.513 | 1.73 | 0.759 | 2.01 | 1.03 | 2.48 | 0.0822 | 0.776 | 0.111 | 
CCN1/C(=C/C=C/c2n(-c3ccccc3)c3ccc(-c4nc5ccccc5s4)cc3[n+]2CC)N(c2ccccc2)c2ccc(-c3nc4ccccc4s3)cc21 | 0.347 | > 46.7 | 0.854 | 5.75 | 1.01 | 10.3 | 2.69 | > 50 | 0.437 | 4.62 | 0.765 | > 50 | 0.284 | > 50 | 0.527 | > 50 | 0.426 | > 50 | 1.8 | > 50
